Assay results from the NIST ThermoML archive (doi:10.1016/j.jct.2012.06.015).

Assay: xn = mol fraction of the nth substance listed
Settings: 101 kPa, Liquid, Vibrating tube method

Cn1ccnc1 [1-methylimidazole] + O
mass density [kg/m3]
Settings	288.15 K	293.15 K	298.15 K	303.15 K	308.15 K	313.15 K	318.15 K	323.15 K
x1 = 0.0443	1010.2	1008.3	1006.2	1003.9	1001.6	999.2	996.6	994.2
x1 = 0.1036	1022.1	1019.3	1016.5	1013.3	1010.2	1007.1	1003.9	1000.9
x1 = 0.2167	1037.4	1033.7	1030.1	1026	1022.1	1018.2	1014.3	1010.6
x1 = 0.3003	1044.4	1040.3	1036.3	1031.9	1027.8	1023.6	1019.3	1015.4
x1 = 0.4024	1048.9	1044.6	1040.5	1035.9	1031.5	1027.2	1022.7	1018.6
x1 = 0.4982	1050.2	1045.8	1041.6	1036.8	1032.4	1028	1023.5	1019.3
x1 = 0.5902	1049.3	1044.7	1040.5	1035.7	1031.3	1026.9	1022.5	1018.4
x1 = 0.7159	1046.7	1042.2	1038	1033.2	1028.8	1024.4	1020	1015.9
x1 = 0.7795	1044.7	1040.2	1036	1031.2	1026.8	1022.4	1018	1013.9
x1 = 0.8907	1041.8	1037.4	1033.3	1028.5	1024.1	1019.7	1015.3	1011.2
x1 = 1	1039.4	1035	1030.9	1026.1	1021.7	1017.3	1012.9	1008.8

O [water] + Cn1ccnc1
Settings	mass density [kg/m3]
318.15 K, x2 = 0	990.1
